Experimental data from patent publication US20170029494A1, “Antigen Binding Constructs” (Glaxo Group Limited, priority 2011, published 2017).
Where “and” joins values, the source holds several entries; their conditions need not be identical. Identical values can stand only once.

Legend:
[1] = test system: human VEGF165 induced blood-retinal breakdown; test: VEGF induced blood-retinal breakdown: rabbit retinal leakage model; type: in vivo; parameters: Geometric mean (right eye values adjusted for left eye values): unit not given here; conditions: for % reduction vs vehicle / Ratio vs Vehicle: Example 9, Table 4B; for Rt ratio of vitreoretinal fluorescein contents between right-induced and left eyes: Example 9; for Geometric mean (right eye values adjusted for left eye values): Example 42, Table 15B (i)
VEGFR1 (Flt1) = VEGFR1 (Flt1) (Homo sapiens, UniProt P17948); conditions: background statement; cited from earlier work
[2] = test system: VEGF165-induced proliferation of human umbilical vein endothelial cells (HUVEC); test: Human Umbilical Cord Endothelial Cell (HUVEC) proliferation assay; type: cell-based; conditions: for Predicted Means for Max % Inhibition, Estimate: weighted mixed model analysis
Experimental: The assay measures the extent of endothelial cell proliferation induced by a defined concentration of VEGF165 and the ability of VEGF antagonists to block this effect. HUVECs were seeded at 5000 cells per well in 96-well gelatine-coated plates, leaving outer wells free of cells, and incubated for several hours to permit adherence. Test molecules were assayed at equimolar concentrations (max 3.33×10^−08M) with a 2-fold serial dilution, each in triplicate. The VEGF165 was prepared in basal medium to achieve 75 ng/ml final concentration. Medium was removed manually from the cell monolayers and 50 μl basal media was added to prevent the cells from drying out. 25 μl VEGF165-containing medium and 25 μl basal medium or test antibody-containing medium was added as appropriate. Cells were incubated for 72 hrs, after which time the total number of cells was determined using Cell Titre Glo.
The data was analysed using GraphPad Prism using a Sigmodial curve fit, variable slope cf a non-linear regression (variable slope). Individual curve fits were fitted for each molecule and at each day. Due to some poor fitting, it was decided to introduce constraints for the curve where a plateau was not observed at the lower concentration. This constraint would be equal to the mean of the points at the lowest concentration. Data was manually selected as to whether the minimum was constrained or not, and the curve fit and parameters were automatically updated based upon this criteria selection. Estimates of the curve maxima and the standard error were analysed using a weighted mixed model analysis of variance, using 1/(standard error)^2, [SE]^2, as a weighting. The analysis adjusted for variability between plates and days using random effects terms. […] The same analysis was then performed on the log 10 scale for the IC50, and the results back transformed.
The data was analysed using GraphPad Prism using a Sigmodial curve fit, variable slope cf a non-linear regression (variable slope). Individual curve fits were fitted for each molecule and at each day. Due to some poor fitting, it was decided to introduce constraints for the curve where a plateau was not observed at the lower concentration. One plate was excluded from the analysis due to poor curve fitting despite constraints. This constraint would be equal to the mean of the points at the lowest concentration. Data was manually selected as to whether the minimum was constrained or not, and the curve fit and parameters were automatically updated based upon this criteria selection. Estimates of the curve maxima and the standard error were analysed using a weighted mixed model analysis of variance, using 1/(standard error)^2, [SE]^2, as a weighting. The analysis adjusted for variability between plates and days using random effects terms. […]

[3] = target: T1, mVEGF R2 Fc (R&D 443-KD/CF) (mouse, UniProt P35918 20-762); test: MSD on coated mouse VEGF164 (1ug/mL mVEGF capture), detection with sulfo-TAG anti-human IgG Fc
T1 construct: Bought control protein; not shown: Fc part of the bought fusion

[4] = Example 42, Table 15B (ii), 2000 μg/eye
[5] = dose H (high), VEGF induced retinal leakage

VEGFR1 (Flt1), sequence (P17948 27-1338, species assumed): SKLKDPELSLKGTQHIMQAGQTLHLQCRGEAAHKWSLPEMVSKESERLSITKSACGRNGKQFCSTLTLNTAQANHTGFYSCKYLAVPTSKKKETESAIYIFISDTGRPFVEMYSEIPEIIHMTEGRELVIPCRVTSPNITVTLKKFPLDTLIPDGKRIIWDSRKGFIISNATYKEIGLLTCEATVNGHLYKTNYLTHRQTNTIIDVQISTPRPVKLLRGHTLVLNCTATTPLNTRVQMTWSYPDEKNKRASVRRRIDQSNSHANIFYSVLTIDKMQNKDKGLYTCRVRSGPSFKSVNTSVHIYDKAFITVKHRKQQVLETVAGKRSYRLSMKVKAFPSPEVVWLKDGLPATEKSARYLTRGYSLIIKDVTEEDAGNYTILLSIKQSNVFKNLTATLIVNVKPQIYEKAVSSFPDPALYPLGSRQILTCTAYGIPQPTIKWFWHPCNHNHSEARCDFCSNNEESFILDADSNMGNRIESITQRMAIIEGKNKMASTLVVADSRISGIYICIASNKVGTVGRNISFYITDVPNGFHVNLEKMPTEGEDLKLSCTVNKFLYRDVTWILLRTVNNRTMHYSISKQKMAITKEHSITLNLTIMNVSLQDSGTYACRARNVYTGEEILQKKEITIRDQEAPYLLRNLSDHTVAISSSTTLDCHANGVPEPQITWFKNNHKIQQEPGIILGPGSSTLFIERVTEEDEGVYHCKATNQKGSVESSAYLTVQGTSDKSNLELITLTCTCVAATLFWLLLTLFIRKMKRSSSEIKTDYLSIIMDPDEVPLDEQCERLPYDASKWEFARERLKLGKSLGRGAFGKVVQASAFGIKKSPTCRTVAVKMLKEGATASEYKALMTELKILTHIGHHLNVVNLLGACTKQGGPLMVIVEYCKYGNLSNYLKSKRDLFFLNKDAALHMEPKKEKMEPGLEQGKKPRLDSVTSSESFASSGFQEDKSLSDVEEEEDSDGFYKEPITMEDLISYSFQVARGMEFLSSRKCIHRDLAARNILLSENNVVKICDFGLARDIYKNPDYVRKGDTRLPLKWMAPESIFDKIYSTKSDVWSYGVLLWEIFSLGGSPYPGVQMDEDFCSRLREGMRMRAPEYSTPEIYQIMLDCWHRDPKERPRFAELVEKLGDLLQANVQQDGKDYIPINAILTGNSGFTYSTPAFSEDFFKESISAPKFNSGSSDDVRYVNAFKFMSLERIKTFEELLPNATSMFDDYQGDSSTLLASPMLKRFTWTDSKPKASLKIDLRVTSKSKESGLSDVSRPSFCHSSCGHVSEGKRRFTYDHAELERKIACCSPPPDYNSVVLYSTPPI
T1 sequence (P35918 20-762 limits assumed): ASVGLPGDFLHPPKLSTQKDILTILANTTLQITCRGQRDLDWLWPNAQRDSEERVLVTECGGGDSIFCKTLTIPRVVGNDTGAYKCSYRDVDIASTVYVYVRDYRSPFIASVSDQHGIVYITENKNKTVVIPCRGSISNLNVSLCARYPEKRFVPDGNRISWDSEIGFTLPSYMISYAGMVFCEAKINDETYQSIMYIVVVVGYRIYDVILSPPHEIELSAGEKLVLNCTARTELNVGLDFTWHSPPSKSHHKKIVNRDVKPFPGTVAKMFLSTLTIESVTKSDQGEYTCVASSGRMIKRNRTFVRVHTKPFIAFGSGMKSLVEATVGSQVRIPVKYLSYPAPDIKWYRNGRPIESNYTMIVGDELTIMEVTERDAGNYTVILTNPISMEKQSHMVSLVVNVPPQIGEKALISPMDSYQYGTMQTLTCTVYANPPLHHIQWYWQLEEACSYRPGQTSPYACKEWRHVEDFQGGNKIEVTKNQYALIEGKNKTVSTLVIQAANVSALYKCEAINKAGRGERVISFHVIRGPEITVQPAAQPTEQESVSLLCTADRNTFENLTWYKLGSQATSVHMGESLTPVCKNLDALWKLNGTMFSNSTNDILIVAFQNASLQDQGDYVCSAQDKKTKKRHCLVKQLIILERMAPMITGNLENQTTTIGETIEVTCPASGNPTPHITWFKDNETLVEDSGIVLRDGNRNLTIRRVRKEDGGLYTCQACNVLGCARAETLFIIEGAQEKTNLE

C[C@]12C=CC(=O)C=C1CC[C@H]1[C@@H]3C[C@@H](O)[C@](O)(C(=O)CO)[C@@]3(C)C[C@H](O)[C@@]12F [Kenacort, Triamcinalone]
% reduction vs vehicle ([1]; 2000 μg/eye): 85%
Ratio vs Vehicle ([1]; 2000 μg/eye): 0.1485
Rt ratio of vitreoretinal fluorescein contents between right-induced and left eyes ([1]; Kenacort 2000 μg/eye IVT Day -7): 1.15±0.61
Geometric mean (right eye values adjusted for left eye values) ([1]; 2000 μg/eye): 10205.21
% reduction [1, 4]: 80% and 79.9922%
ratio (to vehicle) [1, 4]: 0.2001

VEGF
Kd (VEGFR1 (Flt1)): ~0.03 nM

Bevacizumab [Avastin]
inhibit HUVEC proliferation ([2]; Example 8, VEGF165 75 ng/ml, 72 hrs, maximum extent of inhibition): ~100%
inhibition of VEGF driven HUVEC proliferation (extent) ([2]; Example 18, data not shown): ~100%
Predicted Means for Max % Inhibition, Estimate ([2]; Table 14A): 73.5423%
Predicted Means for Max % Inhibition, Estimate ([2]; Table 18A): 71.0316%
% reduction vs vehicle [1, 5]: 75%
% reduction vs vehicle ([1]; dose H (high), VEGF induced retinal leakage, listed as Bevacizumab): 75%
Geometric mean (right eye values adjusted for left eye values) ([1]; dose H, IVT Day -7): 12332.94
Geometric mean (right eye values adjusted for left eye values) ([1]; dose L): 12037.98
Geometric mean (right eye values adjusted for left eye values) ([1]; dose L/3): 14592.62
% reduction ([1]; Example 42, Table 15B (ii), dose H): 75.8207%
% reduction ([1]; Example 42, Table 15B (ii), dose L): 76.3990%
% reduction ([1]; Example 42, Table 15B (ii), dose L/3): 71.3905%
reduction of VEGF induced retinal leakage ([1]; Example 42, the three different doses (H, L, L/3)): 71.4-76.4%

Ranibizumab [Lucentis]
Ratio vs Vehicle ([1]; dose H (high)): 0.1826
% reduction vs vehicle [1, 5]: 82%
% reduction vs vehicle ([1]; dose H (high), VEGF induced retinal leakage, listed as Ranibizumab): 82%
Ratio vs Vehicle ([1]; low dose (L)): 0.2188
% reduction vs vehicle ([1]; low dose (L), VEGF induced retinal leakage): 78%
% reduction vs vehicle ([1]; low dose (L), VEGF induced retinal leakage, listed as Ranibizumab): 78%
Rt ratio of vitreoretinal fluorescein contents between right-induced and left eyes ([1]; IVT Day -7, 500 ng rhVEGF165 Day 0, read Day 2, dose H (high)): 1.05±0.52
Rt ratio of vitreoretinal fluorescein contents between right-induced and left eyes ([1]; IVT Day -7, 500 ng rhVEGF165 Day 0, read Day 2, low dose (L)): 1.81±1.76

B1: mouse VEGF164 (R&D 493-MV/CF) (ligand, UniProt Q00731-2 27-190, looked up)
chain: APTTEGEQKSHEVIKFMDVYQRSYCRPIETLVDIFQEYPDEIEYIFKPSCVPLMRCAGCCNDEALECVPTSESNITMQIMRIKPHQSQHIGEMSFLQHSRCECRPKKDRTKPENHCEPCSERRKHLFVQDPQTCKCSCKNTDSRCKARQLELNERTCRCDKPRR
notes: Bought reagent; also called mVEGF164; murine VEGF164
binding result [3]: binds
